Patent US20130072404A1, “APPARATUS AND PROCESSES FOR GENERATING VARIABLE CONCENTRATION OF SOLUTES IN MICRODROPLETS” (UNIVERSITE DE STRASBOURG, priority 2009, published 2013)
Values joined by “and” are separate entries in the source; they are usually repeats but may differ in a detail not shown here. Equal entries are not always repeated.

What was measured:
Type in all cases: biochemical
Set-up in all cases: purchased Sigma-Aldrich Co
[1] = biological target: T1, β-galactosidase (Escherichia coli, UniProt P00722); assay: Droplet microfluidic IC50 measurement, Taylor dispersion dilution (Example 1c), RBG substrate; conditions: Taylor dispersion pulse, 30 s droplet incubation, 4-parameter log-logistic fit; read-out: IC50 of PETG in the enzyme/substrate/inhibitor system
T1 sequence (P00722 2-1024 limits assumed): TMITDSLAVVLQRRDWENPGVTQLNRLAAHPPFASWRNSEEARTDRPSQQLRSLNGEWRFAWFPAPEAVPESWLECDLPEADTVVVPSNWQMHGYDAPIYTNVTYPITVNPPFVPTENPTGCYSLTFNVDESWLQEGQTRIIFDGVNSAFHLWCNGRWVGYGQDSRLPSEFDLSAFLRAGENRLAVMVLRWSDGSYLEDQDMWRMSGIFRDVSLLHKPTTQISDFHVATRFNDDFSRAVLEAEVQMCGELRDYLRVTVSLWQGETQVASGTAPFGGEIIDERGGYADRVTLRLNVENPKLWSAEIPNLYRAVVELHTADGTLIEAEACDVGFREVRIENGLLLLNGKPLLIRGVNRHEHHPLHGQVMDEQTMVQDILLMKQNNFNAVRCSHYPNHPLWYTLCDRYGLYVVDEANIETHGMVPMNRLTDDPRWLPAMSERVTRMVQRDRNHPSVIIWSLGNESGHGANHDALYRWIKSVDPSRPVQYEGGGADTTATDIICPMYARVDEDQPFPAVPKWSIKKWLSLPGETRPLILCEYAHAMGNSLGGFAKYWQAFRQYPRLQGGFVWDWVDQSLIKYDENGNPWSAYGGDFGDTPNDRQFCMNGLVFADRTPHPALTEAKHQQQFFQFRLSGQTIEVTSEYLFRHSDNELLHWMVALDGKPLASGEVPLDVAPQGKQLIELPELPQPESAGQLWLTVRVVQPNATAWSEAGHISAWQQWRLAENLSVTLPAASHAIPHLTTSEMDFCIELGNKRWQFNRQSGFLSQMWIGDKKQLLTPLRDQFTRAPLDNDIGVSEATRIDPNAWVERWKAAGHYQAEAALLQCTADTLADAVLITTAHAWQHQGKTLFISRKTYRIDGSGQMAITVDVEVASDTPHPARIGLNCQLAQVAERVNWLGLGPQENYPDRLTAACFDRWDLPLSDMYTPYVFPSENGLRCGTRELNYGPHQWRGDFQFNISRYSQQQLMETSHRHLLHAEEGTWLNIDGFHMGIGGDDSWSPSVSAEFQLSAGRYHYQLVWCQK
From the text: (§1) In the examples, the model systems comprised an enzyme, a substrate, and an inhibitor for IC50 measurements and an enzyme and substrate alone for KM measurements. In all cases the enzyme was β-galactosidase (Sigma-Aldrich Co.), the substrate was resorufin β-D-galactopyranoside (RBG; Invitrogen Corporation), and the inhibitor was phenylethyl β-D-thiogalactopyranoside (PETG; Invitrogen Corporation).
A microfluidic emulsion of 90 pl aqueous microdroplets was generated by injecting the microfluidic device (FIG. 2) with an oil phase and three aqueous phases. The oil phase consisted of 1% (w/w) EA surfactant dissolved in HFE-7500 flowing at 680 μl/hr. […]
The autosampler was used to introduce a single 1 μl pulse of 120 μM PETG (the inhibitor) to the PBS flowing to the device through the silane-treated capillary. The inclusion of 40 μM of the fluorophore sodium fluorescein with the inhibitor allowed the concentration of PETG to be inferred downstream from the degree of fluorescence observed in the 500-520 nm channel. […]
The microdroplets in the initial climb in inhibitor concentration (the leading front of the inhibitor pulse) were plotted in an XY graph with initial reaction rate (inferred from resorufin fluorescence after 30 seconds of droplet incubation) against inhibitor concentration (assumed to be proportional to sodium fluorescein fluorescence). […]

[2] = biological target: T1, β-galactosidase; assay: Droplet microfluidic IC50 measurement, on-chip serial dilution network with scanning chamber (Example 1d), RBG substrate; conditions: 75 s droplet incubation, 4-parameter log-logistic fit, read-out: IC50 of PETG in the enzyme/substrate/inhibitor system
Experimental: as §1
An aqueous phase of 120 μM PETG (the inhibitor) and 100 μM sodium fluorescein in PBS were injected into the ‘compound’ input of the micro fluidic device (FIG. 4) at a flow rate of 111 μl/hr. A second aqueous phase, PBS, was injected into the ‘diluent’ input at a flow rate of 389 μl/hr. […]
A series of microdroplets were created containing PETG (and sodium fluorescein) at different concentrations: from zero to 30 μM (25 μM sodium fluorescein) and then from 30 μM to zero. […] The amounts of fluorescent resorufin (liberated by β-galactosidase activity) and sodium fluorescein were measured for each droplet by monitoring fluorescence intensity in the 590-625 and 500-520 nm channels, respectively.
About 10^5 microdroplets were plotted in an XY graph with initial reaction rate (inferred from resorufin fluorescence after 75 seconds of droplet incubation) against inhibitor concentration (assumed to be proportional to sodium fluorescein fluorescence). […]

[3] = biological target: T1, β-galactosidase; assay: Microplate dose-response assay, β-galactosidase (Example 2); conditions: 8-point microplate assay, n=10; read-out: IC50 obtained in microplate
Experimental: For β-galactosidase, a solution of the inhibitor PETG was diluted to 200 μM in PBS and then further diluted in 3-fold serial dilution steps seven times (200 μM down to […]). 10 μl aliquots of each dilution were pipetted into the wells of a black, opaque 384-well plate (Corning, Inc., New York, USA). A stock of the substrate FDG was diluted to 240 μM in PBS and 10 μl aliquots were added to the wells. The reactions were initiated by adding 20 μl of 10 U/ml β-galactosidase, in PBS containing 2 g/l BSA, to each well. A SpectraMax M5 microplate reader (Molecular Devices, Inc., California, USA) was used to monitor the reactions at 25° C. with an excitation wavelength of 490 nm, an emission wavelength of 514 nm (automatic cut-off), and a 15 second period between measurements. The initial rate of each reaction was determined and the percentage inhibition of β-galactosidase activity was calculated by scaling this initial rate between a blank (no enzyme, equivalent to 100% inhibition) and a positive control (no inhibitor, equivalent to 0% inhibition) in the same manner as Eq. 1 (see above). When required, the 4-parameter Hill function was fitted to a plot of percentage inhibition against logged inhibitor concentration to determine the IC50 of PETG.

OC[C@H]1O[C@@H](SCCc2ccccc2)[C@H](O)[C@@H](O)[C@H]1O [PETG, phenylethyl β-D-thiogalactopyranoside]
IC50 [1]: 3040 nM | IC50 [2]: 2210 nM and 3040 nM | IC50 [3]: 2720 nM
